In patent US20200352880A1 (priority 2019, published 2020):

Columns and labels:
neutrophils [1] = experiment: E44-induced NET formation: DNA release (PicoGreen) and neutrophil elastase (NETosis Assay Kit) from neutrophils; type: cell-based; details: concentration-dependent
Description: (§1) Since DNA is a major component of NETs, NET formation is first examined by determining the amount of DNA released from neutrophils. […] Methods are described in Reference 1.
The methods of neutrophil isolation and preparation are similar to those described previously, and the amount of NE is detected by following kit instructions.

E44 [2] = experiment: killing, NET trapping and phagocytosis of E44 by neutrophils; type: cell-based, E. coli
Description: (§2) The bactericidal functions of neutrophils include phagocytosis and NET-mediated killing. […] Experiments are performed according to the procedures described in Reference 2. […] The bacteria are collected and spread over Brain Heart Infusion (BHI) agar plates containing rifampin and allowed to culture for 12-16 hours, then the number of bacterial colonies of each sample is counted. […] After 1-hour incubation, the samples are centrifuged, collected, and mounted on microscope slides, which are sealed after DAPI staining, then phagocytosis of PMNs is observed and phagocytized particles are counted under a fluorescence microscope. […] However, early phagocytosis is not accompanied by a significant change in PMN structure when MOI<50. When MOI>50, each PMN on average includes at least 50 E44, a significant nuclear morphological change occurs.

neutrophils [3] = experiment: MRSA-induced NET formation (release of neutrophil DNA); type: cell-based
Description: as §1
(§3) Experimental procedures of MEM enhancing NET formation and facilitating killing of MRSA by neutrophils are the same as described previously.

MRSA = experiment: killing of MRSA by neutrophils; type: cell-based, methicillin-resistant Staphylococcus aureus; details: increased concentration of MEM (1-25 μM); concentration-dependent
Description: as §2, §3

E44 [4] = experiment: NET formation in E44-infected mice (serum free DNA and NE); type: in vivo, C57 mice; details: MEM 5-10 μg/g body weight intraperitoneally, 24 hours
Description: After 24 hours, serum is obtained from blood samples collected from hearts, and the amounts of free DNA and neutrophil elastase (NE) in the serum of each mouse are determined using PicoGreen and Mouse PMN Elastase ELISA Kit (R&D Systems) respectively.

E44 [5] = experiment: spread of E44 in infected mice (bacterial counts in blood, livers, lungs, spleens); type: in vivo, C57 mice; details: MEM 5-10 μg/g body weight intraperitoneally, 24 hours
Description: After 24 hours of E44 infection, the mice are dissected to obtain blood, livers, lungs, and spleens under aseptic condition. The obtained blood, after performing an appropriate serial dilution, is spread over BHI (containing rifampin) agar plates. The obtained livers, lungs, and spleens are precisely weighed, added with pre-cooled sterile PBS in a ratio of 0.1 g/ml, and fully homogenized. The homogenates, after performing an appropriate serial dilution, are spread over BHI (containing rifampin) agar plates.
After confirming that MEM may enhance NET formation in bacteria-infected mice, whether MEM may block the spread of bacteria in mice is discussed. […] After 24 hours of bacterial infection, the mice are dissected to obtain blood, livers, lungs, and spleens under aseptic condition for bacterial count determination.

E44 [6] = experiment: killing of E44 by phagocytosis in dHL60 cells after CHRNA7 siRNA silencing; type: cell-based, E. coli; details: MEM dose up to 50 μM
Description: FIGS. 5A, 5B, 5C, and 5D illustrate the influence on phagocytosis by PMNs after gene silencing of CHRNA7 and S100A9. 2×10^6/ml HL60 cells are treated with 1.3% DMSO for cell stimulation and induction, and cell morphology is observed under an inverted microscope after 4-5 days. Compared to the control group, the cell volume gradually enlarges, granulocyte nuclear shapes such as kidney-shaped (banded) nucleus, segmented (multi-lobed) nucleus, bean-shaped nucleus appear after 48 hours and gradually increase over time. Cell status of each experimental group is identified using Typan Blue Exclusion Test and Wright-Giemsa Stain Method to meet the requirements for cell quality in follow-up studies. Differentiated neutrophils are added with CHRNA7 and S100A9siRNA, respectively, and treated with lipofectamine 2000 in 24-well plates, a supplemental complete cell culture medium is added after 6 hours to incubate for 48 hours, and the expression of CHRNA7 and S100A9 in differentiated HL60 (dHL60) cells is examined. Control siRNA acts as the control group, and GAPDH represents the housekeeping gene.
Samples are prepared by the dHL60 cells and E44 in a ratio of 1:5 and allowed to interact for 1 hour.

α7nAChR and S100A9 = experiment: immunofluorescence of α7nAChR and S100A9 in PMNs incubated with E44; type: cell-based; details: PMNs with bacteria (E44), compared to bacteria groups
Description: The next step is to further examine whether alpha7 nicotinic acetylcholine receptor (α7nAChR) is associated with antimicrobial protein S100A9 during the process of phagocytizing E44 by PMNs. […] Next, an immunofluorescence staining test is performed on the samples as follows: a primary antibody is added to incubate with α7nAChR and S100A9 overnight at 4° C., and then the corresponding FITC and PE-conjugated secondary antibodies are added to incubate for 1 hour at room temperature, after mounting the samples on microscope slides with DAPI sealing, positioning and expression of α7nAChR and S100A9 are observed under a fluorescence microscope. Compared to the control group, S100A9 (red) is redistributed to the cell edge and area around the nucleus (FIG. 6) after infected with E44, it is observed that α7nAChR (green) and S100A9 (red) are located in the same position with presenting of colocalization, and the expression of both is elevated, α7nAChR (green) and S100A9 (red) also appear to have a high degree of colocalization(R close to 1) after ImageJ software analysis.

PMNs = experiment: immunofluorescence of MPO, S100A9 and DNA in PMNs (NET formation); type: cell-based; details: PMA groups and E44 groups treated with MEM
mouse BMECs = experiment: gene expression profile of E44-infected BMECs by Next Generation Sequencing; type: cell-based; details: E44 infection 0.5 hours
Description: After the mouse BMECs are infected with E44 for 0.5 hours, the cells are collected to extract RNA, which is sent to Hua-Da Company (China) for Next Generation Sequencing analysis.
After the mouse BMECs are infected with E44 for 0.5 hours, the cells are collected to extract RNA, which is sent to Hua-Da Company (China) to analyze alterations on gene expression profile using Next Generation Sequencing and look for differentially expressed genes, a total of 978 differentially expressed genes are found.

cBMECs = experiment: number of circulating brain microvascular endothelial cells (cBMECs) in blood; details: in vivo
Description: The protocol is prepared as follows:
According to manufacturer's instructions, Dynabeads M-450 solution with a final concentration of 4×10^8 beads/ml is prepared by Hank's Balanced Salt Solution. BMECs in brain tissues and blood are isolated using UEA I. The BMECs from the brain tissues are cultured with RPMI-1640 medium containing 10% fetal bovine serum and identified using CD146 and Mfsd2a antibodies.

α7nAChR = α7nAChR (Homo sapiens, UniProt P36544); details: cited from earlier work
Chain of α7nAChR (P36544 23-502): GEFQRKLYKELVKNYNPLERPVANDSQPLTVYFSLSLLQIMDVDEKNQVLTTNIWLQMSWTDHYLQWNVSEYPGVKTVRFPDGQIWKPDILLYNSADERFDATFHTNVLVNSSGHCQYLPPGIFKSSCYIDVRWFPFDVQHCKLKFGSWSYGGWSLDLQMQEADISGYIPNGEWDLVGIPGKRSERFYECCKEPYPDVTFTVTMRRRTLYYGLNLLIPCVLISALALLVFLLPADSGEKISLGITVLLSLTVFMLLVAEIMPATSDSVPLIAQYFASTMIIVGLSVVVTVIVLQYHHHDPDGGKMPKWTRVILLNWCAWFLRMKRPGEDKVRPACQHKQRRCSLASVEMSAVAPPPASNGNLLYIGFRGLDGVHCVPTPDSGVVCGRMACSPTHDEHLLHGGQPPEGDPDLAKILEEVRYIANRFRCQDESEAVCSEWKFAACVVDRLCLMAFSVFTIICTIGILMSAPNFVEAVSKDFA

With `C[C@]12C[C@@H]3C[C@](C)(C1)C[C@@](N)(C3)C2.Cl` [MEM, 3,5-Dimethyl-1-aminoadamantane hydrochloride] the “release of DNA from neutrophils under the effect of E44” value (neutrophils [1]; E44 MOI=10, different concentrations of MEM, 4 hours) was “significantly enhanced”, the “production of neutrophil elastase (NE) under the effect of E44” value (neutrophils [1]; E44 with addition of MEM) was “significantly increased” and the “phagocytosis of E44 by PMNs” value (E44 [2]; 50 μM MEM, E44 MOI=1, 5, 50, 100, 1-hour incubation, versus E44 groups) was “more E44 are phagocytized”. The “NETs trapping of E44” value (E44 [2]; DNase used to dissolve DNA) was “concentration-dependently enhance”, the “killing of E44 by neutrophils, including phagocytosis and NET-mediated killing” value (E44 [2]; E44 MOI=10, MEM 0, 10, 20, 50 μM, 2 hours, with or without Cytochalasin D) was “concentration-dependently enhance” and the “release of neutrophil DNA under the effect of MRSA” value (neutrophils [3]) was “significantly enhance”. For the same compound, the “survival rate of MRSA” value (MRSA) was “gradually decreases”, the “NE in the blood (serum) of E44-infected mice” value (E44 [4]) was “significantly enhance” and the “free DNA in the blood (serum) of E44-infected mice” value (E44 [4]) was “significantly enhance”. The “spread of bacteria (E44) in mice” value (E44 [5]) was “significantly block”, the “effect of MEM on phagocytizing bacteria by PMNs after CHRNA7 down-regulation” value (E44 [6]) was “not obvious” and the “degree of colocalization of α7nAChR and S100A9” value (α7nAChR and S100A9) was “remarkably reduced”. The “expression of α7nAChR and S100A9” value (α7nAChR and S100A9) was “significantly decreased”, the “MPO, S100A9 and DNA formation (NET formation)” value (PMNs) was “a large number of MPO (green), S100A9 (red), and DNA (blue) are formed” and the “E44-induced alterations on gene expression” value (mouse BMECs) was “reverse”. For the same compound, the “anti-inflammatory genes IL-33, IL-18rap, MMP10, Irs1 expression” value (mouse BMECs) was “significantly up-regulate”, the “pro-inflammatory genes A20, CISH, Ptgds, ZEP36 expression” value (mouse BMECs) was “down-regulate” and the “number of cBMECs in blood” value (cBMECs) was “reduce”. For the same compound, the “inhibitory effect on α7nAChR compared with inhibitory effect on NMDAR” value (α7nAChR) was “stronger”.
